Values quoted from earlier work as cited in patent publication US8025907B2, “Cosmetic composition to accelerate repair of functional wrinkles” (priority 2005, dated 2011).

Key:
[1] = test system: wrinkles
[2] = test system: forehead expression lines; conditions: 28 days

Row | Substance | wrinkle depth reduction by the hexapeptide component ([1]; after thirty days, after factoring the influence of the cosmetic base ingredient) | time before a visible reduction in wrinkles can occur ([1]; on average) | reduction of forehead expression lines [2]
1 | acetyl hexapeptide-3 | less than 30% | up to 30 days | 
2 | Dipeptide Diaminobutyroyl Benzalamide Diacetate |  |  | up to 52%
